The record followed here is US8476264B2, “N-(3-(2-amino-6,6-difluoro-4,4A,5,6,7,7A-hexahydro-cyclopenta[E][1,3]oxazin-4-yl)-phenylamides as BACE1 inhibitors” (Hoffmann-La Roche Inc., priority 2011, dated 2013).

The target in data set [1] is T1, CYP2C9 (Homo sapiens, UniProt P11712).
T1 construct: 0.2 mg/ml pooled human liver microsomes; from tissue; host or cells: pooled human liver microsomes
The data set is described as follows: CYP inhibition assay, CYP2C9. As to conditions: human liver microsomes, diclofenac 4' hydroxylase; read-out: CYP IC50 2C9. In kind it is in vitro ADME. Here is the method: (§1) Inhibition of cytochromes P450 (CYPs) 2C9, 2D6 and 3A4 was assessed using human liver microsomes and CYP-selective substrate metabolism reactions. 50 μl incubations were made up containing (finally) 0.2 mg/ml pooled human liver microsomes, 5 μM substrate (diclofenac for CYP2C9 [4′ hydroxylase], dextromethorphan for CYP2D6 [O-demethylase] or midazolam for CYP3A4 [1′ hydroxylase]), 0.25 μL DMSO containing test inhibitor and NADPH regenerating system. Test inhibitor concentrations of 50, 16.7, 5.6, 1.9, 0.6 and 0.2 μM were assessed in singlicate. Incubations were pre-warmed to 37° C. for 10 minutes before initiation by addition of NADPH regenerating system. Incubations were quenched after 5 minutes (20 minutes for dextromethorphan) by addition of 50 μl cold acetonitrile containing 20 ng/ml 4-OH-diclofenac-13C6, 20 ng/mL dextrorphan-D3 and 20 ng/mL 1-OH-midazolam-D4. Quenched incubates were stored at −20° C. for at least 1 hour before centrifugation (20,000×g, 20 minutes). Supernatants were removed and diluted 1:1 with water prior to analysis using a RapidFire sample injector system and API4000 mass spectrometer. Peak areas for substrate, metabolite and stable-labelled metabolite standard were determined using MS/MS. The peak area ratios between the metabolite generated by the enzymatic reaction and the internal standard were used in subsequent calculations. The percentage of (DMSO) control activity was calculated for each incubate and IC50 values estimated by non-linear regression. Sulfaphenazole, quinidine or ketoconazole were tested in each CYP2C9, CYP2D6 or CYP3A4 inhibition experiment, respectively, to ensure assay sensitivity and reproducibility. (Validated assays for human cytochrome P450 activities, R. L. Walsky and R. S. Obach, Drug Metabolism and Disposition 32: 647-660, 2004. and S. Fowler and H. Zhang, The AAPS Journal, Vol. 10, No. 2, 410-424, 2008.)
(Liver microsomes are a subcellular fraction often used to study metabolism.)

Data set [2] has as its target T2, hERG channel (Homo sapiens, UniProt Q12809).
T2 construct: expressed in transfected cells; host or cells: CHO cells
Description: PatchXpress hERG inhibition assay. In kind it is cell-based. As to conditions: @ 1 μM; CHO cells transfected with hERG, automated patch clamp. As for the experimental part:
PatchXpress hERG Inhibition Assay
The detailed method to quantify hERG channel inhibition by the automated patch clamp system PatchXpress® 7000A (Molecular Devices, Sunnyvale, Calif.) has been described by Guo et al. (J of Pharmacol & Tox Methods, (2005) 52(1):123-35). In brief, Chinese hamster ovary (CHO) cells transfected with the human ether-a-go-go-related gene (hERG) was cultured in Ex-cell 302 media supplemented with 10% fetal bovine serum, 2 mM glutamine and 0.25 mg/ml geneticin and maintained in a CO2 incubator at 37° C. For patch clamp electrophysiology, the external buffer contained (in mM): 150 NaCl, 10 Hepes, 4 KCl, 1.2 CaCl2, 1 MgCl2, pH 7.4 adjusted with […] and the internal recording solution contained (in mM): 140 KCl, 6 EGTA, 5 Hepes, MgCl2, 5 ATP-Na2, pH 7.2 adjusted with KOH. Once the cell was loaded in the recording chamber and formed a giga ohm seal with the planar glass electrodes (Sealchip™), a whole-cell configuration was achieved by rupturing the cell membrane. The membrane potential was then clamped at −80 mV and the hERG channel activated by a 1-second depolarizing pulse delivered at 0.1 Hz, the hERG current was measured during the 500 ms-repolarizing pulse to −40 mV. After an acceptable hERG current recording was obtained, the cell was first exposed to 0.3% DMSO as the vehicle control, followed by the test article in three ascending, full-log interval concentrations and finally E-4031 at 1 μM (as the positive control) to block the hERG current completely. […] The inhibition of hERG current at each concentration was normalized to that recorded in the vehicle control, and fitted with Hill equation to calculate IC20 and/or IC50.
On the technique in general: Block of hERG is tested as a sign of cardiac risk.

Data set [3] concerns the target T3, CYP2D6 (Homo sapiens, UniProt P10635).
T3 construct: 0.2 mg/ml pooled human liver microsomes; from tissue; host or cells: pooled human liver microsomes
The data set is described as follows: CYP inhibition assay, CYP2D6. In kind it is in vitro ADME. As to conditions: human liver microsomes, dextromethorphan O-demethylase; read-out: CYP IC50 2D6. Here is the method: as §1

For data set [4], the target named is T4, cathepsin D (from human liver) (Homo sapiens, UniProt P07339).
T4 construct: cathepsin D (from human liver, Calbiochem) diluted in assay buffer; purchased Calbiochem; host or cells: purified from human liver
Description: Cathepsin D fluorescent substrate kinetic assay. In kind it is biochemical. As to conditions: pH 5.5, substrate […]-MR121. The text has this: Cathepsin D and Cathepsin E Fluorescent Substrate Kinetic Assays
The MR121 fluorescence assays described below are based on the fact that MR121 forms a non-fluorescent ground state complex with tryptophan. In solution this formation occurs at millimolar concentrations of tryptophan. The mechanism can be used to design a generic biochemical assay for proteases. A substrate peptide is labeled at the N-terminus with tryptophan and at the C-terminus with the fluorophore MR121 (for cathepsin D the 10 amino acid peptide […]-MR121 was used; for cathepsin E, MR121-[…] was used). In absence of protease activity, the substrates remain intact and the MR121 fluorescence is reduced by the high local Trp-concentration. If the substrates are cleaved by the enzymes the MR121 fluorescence is recovered.
The fluorescent substrate cathepsin D and cathepsin E kinetic assays were performed at room temperature in 384-well microtiter plates (black with clear flat bottom, non binding surface plates from Corning) in a final volume of 51 μl. The test compounds were serially diluted in DMSO (15 concentrations, ⅓ dilution steps) and 1 μl of diluted compounds were mixed for 10 min with 40 μl of cathepsin D (from human liver, Calbiochem) diluted in assay buffer (100 mM sodium acetate, 0.05% BSA, pH 5.5; final concentration: 200 nM) or with 40 μl of recombinant human cathepsin E (R&D Systems) diluted in assay buffer (100 mM sodium acetate, 0.05% BSA, pH 4.5; final concentration: 0.01 nM). After addition of 10 μl of the cathepsin D substrate […]-MR121 diluted in cathepsin D assay buffer (final concentration: 300 nM) or […] cathepsin E substrate MR121-[…] diluted in cathepsin E assay buffer (final concentration: 300 nM), the plates were strongly shaken for 2 minutes. The enzymatic reaction was followed in a plate: vision reader (Perkin Elmer) (excitation wavelength: 630 nm; emission: 695 nm) for at least 30 minutes in a kinetic measurement detecting an increase of MR121 fluorescence during the reaction time. The slope in the linear range of the kinetic was calculated and the IC50 of the test compounds were determined using a four parameter equation for curve fitting.

Each structure is given as a SMILES string. pIC50: −log10 of the molar value.

T3 sequence (P10635 whole entry): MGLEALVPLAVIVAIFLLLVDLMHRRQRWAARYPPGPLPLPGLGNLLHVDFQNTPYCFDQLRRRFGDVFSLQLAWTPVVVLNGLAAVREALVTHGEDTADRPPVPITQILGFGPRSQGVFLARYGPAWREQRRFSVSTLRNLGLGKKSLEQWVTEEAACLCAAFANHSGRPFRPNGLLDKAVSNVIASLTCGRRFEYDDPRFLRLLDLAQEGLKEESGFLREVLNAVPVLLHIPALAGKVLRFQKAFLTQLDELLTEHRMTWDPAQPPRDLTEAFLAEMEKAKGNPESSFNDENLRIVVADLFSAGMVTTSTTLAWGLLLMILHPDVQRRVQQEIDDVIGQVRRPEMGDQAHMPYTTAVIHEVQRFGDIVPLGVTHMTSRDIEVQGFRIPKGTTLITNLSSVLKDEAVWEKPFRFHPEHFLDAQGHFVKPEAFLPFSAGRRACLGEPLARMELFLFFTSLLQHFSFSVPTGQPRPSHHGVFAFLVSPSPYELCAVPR
T4 sequence (P07339 65-162 limits assumed): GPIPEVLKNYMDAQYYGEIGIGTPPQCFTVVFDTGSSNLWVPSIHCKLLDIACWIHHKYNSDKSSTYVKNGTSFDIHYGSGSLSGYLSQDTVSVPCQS
T4 sequence (P07339 169-412 limits assumed): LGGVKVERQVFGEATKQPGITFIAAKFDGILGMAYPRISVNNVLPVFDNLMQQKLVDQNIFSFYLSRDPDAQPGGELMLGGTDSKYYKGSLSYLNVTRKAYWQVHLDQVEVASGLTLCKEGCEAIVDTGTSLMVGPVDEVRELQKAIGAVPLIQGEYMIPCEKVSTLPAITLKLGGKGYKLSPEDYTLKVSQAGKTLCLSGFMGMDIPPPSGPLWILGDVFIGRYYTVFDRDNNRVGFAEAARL
T2 sequence (Q12809 whole entry): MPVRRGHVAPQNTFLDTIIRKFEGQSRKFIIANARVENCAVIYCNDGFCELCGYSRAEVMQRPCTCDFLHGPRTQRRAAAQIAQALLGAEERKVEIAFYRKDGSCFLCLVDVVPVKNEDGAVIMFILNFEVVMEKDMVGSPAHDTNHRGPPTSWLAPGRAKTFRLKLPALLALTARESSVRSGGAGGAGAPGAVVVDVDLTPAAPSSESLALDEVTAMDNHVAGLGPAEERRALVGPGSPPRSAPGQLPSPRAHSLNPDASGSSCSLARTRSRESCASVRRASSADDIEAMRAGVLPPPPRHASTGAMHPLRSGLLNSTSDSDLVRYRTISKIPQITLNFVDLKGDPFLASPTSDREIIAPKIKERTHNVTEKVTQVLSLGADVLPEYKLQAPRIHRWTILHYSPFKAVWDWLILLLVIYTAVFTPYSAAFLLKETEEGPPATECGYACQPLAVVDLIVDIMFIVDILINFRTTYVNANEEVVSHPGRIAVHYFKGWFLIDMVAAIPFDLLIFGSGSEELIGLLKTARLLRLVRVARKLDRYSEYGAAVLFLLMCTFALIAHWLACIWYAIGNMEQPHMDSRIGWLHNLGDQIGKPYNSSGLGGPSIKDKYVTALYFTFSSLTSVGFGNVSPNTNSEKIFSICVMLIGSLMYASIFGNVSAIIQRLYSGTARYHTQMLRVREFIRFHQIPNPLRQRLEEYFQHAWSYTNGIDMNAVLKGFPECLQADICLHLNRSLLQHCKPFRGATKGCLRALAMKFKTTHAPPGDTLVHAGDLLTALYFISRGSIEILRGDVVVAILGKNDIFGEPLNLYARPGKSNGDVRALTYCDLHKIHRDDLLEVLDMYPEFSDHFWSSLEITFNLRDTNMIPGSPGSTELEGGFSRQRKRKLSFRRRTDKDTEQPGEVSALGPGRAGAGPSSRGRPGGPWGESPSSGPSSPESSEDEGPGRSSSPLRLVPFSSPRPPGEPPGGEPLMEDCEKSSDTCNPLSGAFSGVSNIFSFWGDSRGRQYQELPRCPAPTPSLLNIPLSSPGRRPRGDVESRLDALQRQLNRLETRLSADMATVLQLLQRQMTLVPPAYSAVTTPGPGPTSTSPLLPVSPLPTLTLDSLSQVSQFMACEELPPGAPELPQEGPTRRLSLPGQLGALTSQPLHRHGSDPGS
T1 sequence (P11712 whole entry): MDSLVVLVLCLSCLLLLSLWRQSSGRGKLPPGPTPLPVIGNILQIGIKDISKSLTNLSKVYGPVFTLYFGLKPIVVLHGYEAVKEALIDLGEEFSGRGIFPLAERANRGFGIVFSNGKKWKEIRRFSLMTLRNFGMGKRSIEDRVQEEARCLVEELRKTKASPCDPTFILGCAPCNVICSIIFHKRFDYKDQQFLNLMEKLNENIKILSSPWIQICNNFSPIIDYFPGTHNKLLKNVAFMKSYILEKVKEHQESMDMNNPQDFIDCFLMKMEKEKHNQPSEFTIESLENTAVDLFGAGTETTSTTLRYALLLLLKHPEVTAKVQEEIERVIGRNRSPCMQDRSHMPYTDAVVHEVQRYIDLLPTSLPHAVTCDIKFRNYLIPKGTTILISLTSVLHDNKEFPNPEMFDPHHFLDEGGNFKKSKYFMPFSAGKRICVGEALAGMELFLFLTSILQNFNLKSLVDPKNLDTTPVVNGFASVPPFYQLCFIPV

Broadly, the pIC50 is −log10 of the IC50, conventionally taken in molar units. Consider `N#Cc1ccc(C(=O)Nc2ccc(F)c([C@@]3(CF)N=C(N)O[C@@H]4CC(F)(F)C[C@@H]43)c2)nc1` [Example 3, 5-Cyano-pyridine-2-carboxylic acid [(S)-3-((1R,2R)-2-amino-6,6-difluoro-4-fluoromethyl-4,4a,5,6,7,7a-hexahydro-cyclopenta[e][1,3]oxazin-4-yl)-4-fluoro-phenyl]-amide], for which the results for the pIC50 in data set [1], in data set [3] and in data set [4] were < 5.00, < 5.00 and < 3.70, respectively. Moreover, in data set [2], the hERG inhibition result was “B (less than 15% inhibition @ 1 μM)”.

Consider `NC1=N[C@](CF)(c2cc(NC(=O)c3ccc(F)cn3)ccc2F)[C@H]2CC(F)(F)C[C@H]2O1` [Example 7, 5-Fluoro-pyridine-2-carboxylic acid [(S)-3-((1R,2R)-2-amino-6,6-difluoro-4-fluoromethyl-4,4a,5,6,7,7a-hexahydro-cyclopenta[e][1,3]oxazin-4-yl)-4-fluoro-phenyl]-amide], for which the values for the pIC50 in data set [1], in data set [3] and in data set [4] were < 5.00, < 5.00 and 4.03, respectively. Also, the hERG inhibition result in data set [2] is recorded as “A (less than 20% inhibition @ 1 μM)”.

In the case of `NC1=N[C@](CF)(c2cc(NC(=O)c3cnc(C(F)F)cn3)ccc2F)[C@H]2CC(F)(F)C[C@H]2O1` [Example 24, 5-Difluoromethyl-pyrazine-2-carboxylic acid [(S)-3-((1R,2R)-2-amino-6,6-difluoro-4-fluoromethyl-4,4a,5,6,7,7a-hexahydro-cyclopenta[e][1,3]oxazin-4-yl)-4-fluoro-phenyl]-amide], the negative-log IC50 (pIC50) was < 5.00 in data set [1], < 5.00 in data set [3] and < 3.70 in data set [4]. In addition, in data set [2], the hERG inhibition entry was “B (less than 15% inhibition @ 1 μM)”.

With `N#Cc1ccc(C(=O)Nc2ccc(F)c([C@@]3(C(F)F)N=C(N)O[C@@H]4CC(F)(F)C[C@@H]43)c2)nc1` [Example 36, 5-Cyano-pyridine-2-carboxylic acid [(S)-3-((1R,2R)-2-amino-4-difluoromethyl-6,6-difluoro-4,4a,5,6,7,7a-hexahydro-cyclopenta[e][1,3]oxazin-4-yl)-4-fluoro-phenyl]-amide], the negative logarithm of the IC50 (pIC50) in data set [1] was < 5.00; in data set [3], < 5.00; in data set [4], < 3.70. In data set [2], the hERG inhibition result is reported as “B (less than 15% inhibition @ 1 μM)”.

As for `COc1cnc(C(=O)Nc2ccc(F)c([C@@]3(C(F)F)N=C(N)O[C@@H]4CC(F)(F)C[C@@H]43)c2)cn1` [Example 42, 5-Methoxy-pyrazine-2-carboxylic acid [(S)-3-((1R,2R)-2-amino-4-difluoromethyl-6,6-difluoro-4,4a,5,6,7,7a-hexahydro-cyclopenta[e][1,3]oxazin-4-yl)-4-fluoro-phenyl]-amide], the pIC50 was < 5.00 in data set [1], < 5.00 in data set [3] and < 3.82 in data set [4]. For the same compound, in data set [2], the hERG inhibition entry is given as “B (less than 15% inhibition @ 1 μM)”.
